The results in this text go back to patent publication US8552057B2, “Phytoestrogenic formulations for alleviation or prevention of neurodegenerative diseases” (priority 2006, dated 2013).

Data set [1] relates to adult ovariectomized rats. Conditions: rat, in vivo.
The target of data set [2] is human ERβ (Homo sapiens (Human), UniProt Q92731). The data set is described as follows: Fluorescence polarization competitive binding assay, ERβ. Conditions: for ERβ RBA (%): percent of the binding affinity of 17β-estradiol (RBA = 100%).
For data set [3], the target named is human ERα (Homo sapiens (Human), UniProt P03372). The data set is described as follows: Fluorescence polarization competitive binding assay, ERα. The following applies: for ERα RBA (%): percent of the binding affinity of 17β-estradiol (RBA = 100%). (In fluorescence polarisation assays a small probe gives low polarisation when free and higher when bound to something large.)

The test system of data set [4] is primary hippocampal neurons. Description: Glutamate-induced neurotoxicity, LDH release. The following applies: for LDH Release (% of Control): 48 h pretreatment, 5-min glutamate, LDH 24 h later; for concentration that elicited the maximal neuroprotective effects: from the dose-response analyses, administered alone. A general note: LDH in the medium is a marker of cell lysis.

The subject of data set [5] is adult ovariectomized rats. Description: Uterine weight in adult ovariectomized rats. The following applies: 6 mg/kg BW.
Setting [6] is: 2 subcutaneous injections once daily, 24 h after 2nd injection.
The mark [7] stands for this setting: compared with vehicle-treated control (set as 0).

Read-outs that look alike come from different tables or passages of the source.

For `C[C@]12CC[C@@H]3c4ccc(O)cc4CC[C@H]3[C@@H]1CC[C@@H]2O` [17β-Estradiol], the “impact on uterine weight” value in data set [1] is on record as “markedly increased”.
In general, IC50 refers to the midpoint of a concentration-inhibition curve. Consider `O=C1Oc2cc(O)cc(Cc3ccccc3)c2CC1c1ccc(Cl)cc1` (stereo not shown) [Compd 3], for which, in data set [2] (Table 1, read-out: IC50 ERβ), the half-maximal inhibitory concentration (IC50) worked out at 250 nM.
Consider `O=c1nc2n(c3cc4ccccc4cc13)Cc1ccccc1-2` [Compd 12], for which, in data set [2], the “binding to ERβ” value is recorded as “either very weak or no binding”.
On to `O=c1c(-c2ccc(O)cc2)coc2cc(O)ccc12` [Daidzein, daidzein], for which the “ERα RBA (%)” value in data set [3] turned out to be 0.0949%. Further, in data set [2], the “ERβ RBA (%)” value was found to be 1.867%. The “LDH Release (% of Control)” value is recorded as 338.39 ± 16.49 % of Control in data set [4] (1 nM); 333.98 ± 9.10 % of Control in data set [4] (10 nM); 301.42 ± 7.70 % of Control in data set [4] (100 nM); 318.49 ± 15.92 % of Control in data set [4] (1 μM); 325.41 ± 26.12 % of Control in data set [4] (10 μM). The “concentration that elicited the maximal neuroprotective effects” value in data set [4] is listed as 100 nM.
On to `Oc1ccc([C@H]2COc3cc(O)ccc3C2)cc1` [Equol, equol], for which the IC50 worked out at 5880 nM in data set [3] and 582 nM in data set [2] (Table 2, full-length human ERβ, read-out: ERβ IC50). Also, the “ERα RBA (%)” value in data set [3] turned out to be 0.4306%. Besides, the “Selectivity (β/α)” value in data set [2] (Table 2) was found to be 10.09. In addition, the “ERβ RBA (%)” value in data set [2] amounted to 5.571%. Moreover, the “LDH Release (% of Control)” value in data set [4] (1 nM) is on record as 453.50 ± 23.37 % of Control; in data set [4] (10 nM), 403.78 ± 17.02 % of Control; in data set [4] (100 nM), 331.59 ± 9.67 % of Control; in data set [4] (1 μM), 381.80 ± 12.01 % of Control; in data set [4] (10 μM) it was 390.21 ± 9.40 % of Control. The “concentration that elicited the maximal neuroprotective effects” value in data set [4] was 100 nM.
Consider `CC(=O)[C@H]1CC[C@H]2[C@@H]3CCC4=CC(=O)CC[C@]4(C)[C@H]3CC[C@]12C` [Progesteron, progesterone, reference compound], for which, in data set [3], the “binding to ERα” value is on record as “does not bind”. The “binding to ERβ” value in data set [2] is given as “does not bind”.
As for `O=c1c(-c2ccc(O)cc2)coc2cc(O)cc(O)c12` [genistein], the “Uterine Dry Weight” value in data set [5] (setting [6]) was 28.14 ± 2.04 mg. For the same molecule, the “Uterine Wet Weight” value in data set [5] (setting [6]) worked out at 144.11 ± 10.18 mg. Moreover, in data set [5] (setting [7]), the “Uterine Dry Weight Increase (%)” value is recorded as 6.49 ± 7.71%. Further, the “Uterine Wet Weight Increase (%)” value in data set [5] (setting [7]) is given as 12.92 ± 7.97%. Moreover, the “LDH Release (% of Control)” value is listed as 361.03 ± 7.71 % of Control in data set [4] (1 nM); 350.02 ± 8.21 % of Control in data set [4] (10 nM); 347.24 ± 16.96 % of Control in data set [4] (100 nM); 356.79 ± 11.15 % of Control in data set [4] (1 μM); 377.84 ± 8.45 % of Control in data set [4] (10 μM). For the same molecule, the “concentration that elicited the maximal neuroprotective effects” value in data set [4] is 100 nM.
